We go through two molecules from patent publication US6326395A, “Antifungal activity of dicationic molecules” (priority 1999, dated 2001).

Assay [1] concerns Candida albicans. As to the kind of experiment: in vitro antifungal susceptibility testing (MIC, MFC; broth macrodilution), Tables 1-7. It is filed as cell-based. As to conditions: read-out: MIC80 (Minimum inhibitory concentration 80%). The text has this:
(§1) The fungi that were employed included two reference strains, C. neoformans var. neoformans H99 and C. albicans A39 and the following clinical isolates: (1) two strains of fluconazole-resistant C. neoformans var. neoformans (135.95 and 114.96); (2) two strains of C. neoformans var. gattii (119.95 and 114.95); (3) two strains of fluconazole-resistant C. albicans (102.96 and 103.96); and (4) one strain each of Torulopsis glabrata (142.91), Candida parapsilosis (111.96), Candida krusei (132.91), C. tropicalis (110.96), Candida lusitaniae (111.92), Fusarium solani (152.89), Aspergillus fumigatus (168.95), and Aspergillus flavus (112.96). Antifungal susceptibility testing was performed using an RPMI-1640 medium (Sigma Chemical Co., St. Louis, Mo.) with glutamine, without sodium bicarbonate, and buffered at pH 7.0 with 0.165 M morpholine-propanesulfonic acid (MOPS).
(§2) In vitro susceptibility testing in the form of Minimum Inhibitory Concentration (MIC) experiments were performed using the broth macrodilution method according to the recommendations of the National Committee for Clinical Laboratory Standards (see 1995 manual). The only difference compared to the standardized procedure was the choice of drug dilutions ranging from 100 to 0.09 μg/ml. Briefly, this procedure specifies an inoculum grown at 35° C. and adjusted to a concentration of 0.5-2.5×10^3 CFU/ml with an incubation of the test performed at 35° C. and reading at 48 hours for all yeasts except for C. neoformans which is interpreted at 72 hr.
(§3) Minimum Fungicidal Concentration (MFC) experiments were adapted from a method by McGinnis (McGinnis, M. R., (1980) "Susceptibility testing and bioassay procedure", p. 431, Academic Press, Inc., New York). Briefly, 10 μl aliquots from tubes with growth inhibition were plated onto Sabouraud agar plates.
(§4) The fungi that were employed included two quality control reference strains, C. neoformans var. neoformansH99 and C. albicans A39 and the following clinical isolates: (1) four strains of C. neoformans var. neoformans (167.95; 135.95; 114.96; and 133.95) of which three were fluconazole-resistant>64 μg/ml (135.95; 114.96; and 133.95); (2) two strains of C. neoformans var. gattii (119.95 and 114.95); (3) two strains of fluconazole-resistant>64 μg/ml C. albicans (102.96 and 103.96); and (4) one strain each of C. glabrata (142.91), Candida parapsilosis (111.96), Candida krusei (132.91), C. tropicalis (110.96), Candida lusitaniae (111.92), Fusarium solani (152.89), Aspergillus fumigatus (168.95), Rhizopus arrhizus (117.89), Paecilomyces lilacinus (137.90), and Aspergillus flavus (112.96). Antifungal susceptibility testing was performed using an RPMI-1640 medium (Sigma Chemical Co., St. Louis, Mo.) with glutamine, without sodium bicarbonate, and buffered at pH 7.0 with 0.165 M morpholinepropanesulfonic acid (MOPS).
(§5) Minimum Fungicidal Concentration (MFC) experiments were adapted from a method by McGinnis (McGinnis, M. R., (1980) "Susceptibility testing and bioassay procedure", p.431, Academic Press, Inc., New York). Briefly, 10 μl aliquots from tubes with growth inhibition were plated onto Sabouraud agar plates.

Assay [2] concerns Cryptococcus neoformans. The description is as above. As to conditions: for MIC: read-out: MIC80 (Minimum inhibitory concentration 80%). It counts as cell-based.
Source text: as §1, §2, §3, §4, §5

The subject of assay [3] is Candida albicans A39. As to the kind of experiment: antifungal susceptibility testing (MIC, MFC), extended spectrum. It counts as cell-based. As to conditions: Candida albicans, A39, read-out: MICs.
Source text: as §1, with “Antifungal susceptibility testing for compounds set forth in Examples 1-20 is discussed hereinbelow. The” for “The”
as §2
(§6) Minimum Fungicidal Concentration (MFC) experiments were adapted from a method by McGinnis (McGinnis, M. R., (1980) "Susceptibility testing and bioassay procedure", p. 431, Academic Press, Inc., New York). Briefly, 10 μl aliquots from tubes with growth inhibition were plated onto Sabouraud agar plates. The lowest drug concentration that yielded three or fewer yeasts colonies was recorded as the MFC.
(§7) Antifungal susceptibility testing for compounds set forth in Examples 21-28 is discussed hereinbelow. […]
(§8) Minimum Fungicidal Concentration (MFC) experiments were adapted from a method by McGinnis (McGinnis, M. R., (1980) "Susceptibility testing and bioassay procedure", p.431, Academic Press, Inc., New York). […] The lowest drug concentration that yielded 3 or fewer yeasts colonies was recorded as the MFC. […]

For assay [4], the system named is C. albicans 102.96. The assay is described as above. It counts as cell-based, Candida albicans. The conditions noted are these: Candida albicans, 102.96, read-out: fluconazole-resistant.
Source text: as §1, with “Antifungal susceptibility testing for compounds set forth in Examples 1-20 is discussed hereinbelow. The” for “The”
as §2, §6
as §4, with “Antifungal susceptibility testing for compounds set forth in Examples 21-28 is discussed hereinbelow. The” for “The”
(§9) Minimum Fungicidal Concentration (MFC) experiments were adapted from a method by McGinnis (McGinnis, M. R., (1980) "Susceptibility testing and bioassay procedure", p.431, Academic Press, Inc., New York). Briefly, 10 μl aliquots from tubes with growth inhibition were plated onto Sabouraud agar plates. The lowest drug concentration that yielded 3 or fewer yeasts colonies was recorded as the MFC. Several drugs were also rescreened with a subculture of 100 μl aliquots from tubes with no growth and there was no change in MFC.

In assay [5] the test system is C. albicans 103.96. The description is as above. It counts as cell-based, Candida albicans. The conditions noted are these: Candida albicans, 103.96, read-out: fluconazole-resistant.
Source text: as §1, with “Antifungal susceptibility testing for compounds set forth in Examples 1-20 is discussed hereinbelow. The” for “The”
as §2, §6
as §4, with “Antifungal susceptibility testing for compounds set forth in Examples 21-28 is discussed hereinbelow. The” for “The”
as §9

Assay [6] deals with C. neoformans 114.96. The assay is described as above. As to conditions: Cryptococcus neoformans, read-out: fluconazole-resistant. It counts as cell-based, C. neoformans var. neoformans.
Source text: as §1, with “Antifungal susceptibility testing for compounds set forth in Examples 1-20 is discussed hereinbelow. The” for “The”
(§10) In vitro susceptibility testing in the form of Minimum Inhibitory Concentration (MIC) experiments were performed using the broth macrodilution method according to the recommendations of the National Committee for Clinical Laboratory Standards (see 1995 manual). […] Briefly, this procedure specifies an inoculum grown at 35° C. and adjusted to a concentration of 0.5-2.5×10^3 CFU/ml with an incubation of the test performed at 35° C. and reading at 48 hours for all yeasts except for C. neoformans which is interpreted at 72 hr.
(§11) Minimum Fungicidal Concentration (MFC) experiments were adapted from a method by McGinnis (McGinnis, M. R., (1980) "Susceptibility testing and bioassay procedure", p. 431, Academic Press, Inc., New York). […] The lowest drug concentration that yielded three or fewer yeasts colonies was recorded as the MFC. […]
as §8

Assay [7] relates to C. neoformans 133.95. The assay is described as above. It counts as cell-based, C. neoformans var. neoformans. The conditions noted are these: Cryptococcus neoformans, read-out: fluconazole-resistant. Here is the method:
as §7, §10, §8

Assay [8] has as its system C. neoformans 135.95. The description is as above. It is filed as cell-based, C. neoformans var. neoformans. As to conditions: Cryptococcus neoformans, read-out: fluconazole-resistant. Here is the method: as §7, §10, §8
In assay [9] the test system is Cryptococcus neoformans H99. Described as above. It is filed as cell-based, C. neoformans var. neoformans. The conditions noted are these: Cryptococcus neoformans, H99, read-out: MICs.
Source text: as §1, with “Antifungal susceptibility testing for compounds set forth in Examples 1-20 is discussed hereinbelow. The” for “The”
as §10, §11, §8

Values after ≈ are worked out from the molar mass of the structure shown. Read-outs that look alike come from different tables or passages of the source. Bounds are passed on as bounds.

On to `OC(Cn1cncn1)(Cn1cncn1)c1ccc(F)cc1F` [Fluconazole, reference compound], for which the MIC in assay [1] (48 h) was 0.25 µg/mL (≈ 0.816 µM); in [2] (72 h), 2 µg/mL (≈ 6.53 µM); in assay [3] it was 0.25 µg/mL (≈ 0.816 µM); in [4] it was greater than 64 µg/mL; in [5] it was greater than 64 µg/mL; in assay [6] it was greater than 64 µg/mL. Also, the MIC in assay [7] and in [8] was greater than 64 µg/mL in each case. Besides, the “MIC80 (Minimum inhibitory concentration 80%)” value in [2] (35° C., 72 hr) was 2.0 µg/mL (≈ 6.53 µM).
Consider `C[C@@H]1[C@H](O)[C@@H](C)/C=C/C=C/C=C/C=C/C=C/C=C/C=C/[C@H](O[C@@H]2O[C@H](C)[C@@H](O)[C@H](N)[C@@H]2O)C[C@@H]2O[C@](O)(C[C@@H](O)C[C@@H](O)[C@H](O)CC[C@@H](O)C[C@@H](O)CC(=O)O[C@H]1C)C[C@H](O)[C@H]2C(=O)O` [Amphotericin, reference compound], for which the MIC in assay [1] (35° C., reading at 48 hours) is 1 µg/mL (≈ 1.08 µM); in [2] (35° C., 72 hr), 1 µg/mL (≈ 1.08 µM); in assay [3] it was 1 µg/mL (≈ 1.08 µM); in assay [9], 1 µg/mL (≈ 1.08 µM).
